Source: publication PMC10179701, “Towards Protection of Nucleic Acids from Herbicide Attack: Self-Assembly of Betaines Based on Pillar[5]arene with Glyphosate and DNA” (International Journal of Molecular Sciences, 2023)
Marks after values point to notes of the source that are not given here.

Key:
A549 cells = assay: MTT test, A549 cells
Method: (§1) The next stage of this work was the study of pillar[5]arenes 1–4 ability to inhibit the viability and proliferative activity of embryonic lung epithelial (LEC) and human lung adenocarcinoma (A549) cells using the MTT test.
(§2) Further, the ability of GIS to inhibit the viability and proliferative activity of LEC and A549 cells was studied by the MTT test. […] The average inhibitory concentration (IC50) was calculated for GIS (Table 3). […]
(§3) 1.6. Cytotoxicity of pillar[5]arenes 1–4, GIS and their mixtures on A549 and LEC Cell Lines […]
(§4) activity of LEC cells and A549 cells was investigated using the MTT test according to [2]. A549 – human alveolar adenocarcinoma cell line (ATCC, Rockville, Maryland, USA) and cow embryo lung epithelial (LEC) cells (Animal Cell Culture Collection of Russian Academy of Agricultural Science, Kazan, Russia) were cultured in DMEM (GIBCO, Waltham, MA, USA) medium supplemented with 10% serum and 100 units/mL of penicillin (PanEco, Moscow, Russia) and streptomycin (PanEco, Moscow, Russia) in a humidified atmosphere with 5% CO2 at 37 °C. Cells were seeded in 96‐well plates at a concentration of 10^4 cells/well. After 24 h of cultivation, the medium was removed from the wells and replaced with a fresh one with the addition of the test substances. The volume of the culture medium in the wells was 100
(§5) μL. After 24 h incubation of cells in the presence of substances, the medium in the wells was replaced with a fresh one containing MTT reagent at a final concentration of 0.5 mg/mL. The cells were incubated with MTT for 4 h at 37 °C in an atmosphere of 5% CO2. Then, the medium was aspirated from the wells and 100 μL of dimethyl sulfoxide was added. Probes were incubated at 37 °C for 15 min in the dark for the formazan crystals to dissolve. The optical density of the formazan solution in the wells was measured using a plate reader (BioRad xMarkTM Microplate Spectrophotometer, USA) at a wavelength of 570 nm.
(§6) Three series of experiments were carried out with at least 8 replications for each variant in the series. […]

DNA from salmon sperm [1] = assay: UV-Vis spectrophotometric titration of (pillar[5]arene-DNA) associates with GIS; format: binding; details: 1:1 composition, Tris-HCl buffer, CPA 3 × 10^–6 M, CDNA 2.5 × 10^–7 M, GIS 1:0.3 to 1:10
From the text: It is well known that water-soluble derivatives of pillar[5]arene can applicate as antidotes for various drugs. The interaction of GIS with DNA with a logarithm of the association constant of 4.92 was shown. […] In this regard, a hypothesis about the possibility of using the synthesized macrocycles as a glyphosate antidote for DNA protection was proposed. Therefore, the behavior of the associate (macrocycle-DNA) with GIS was studied by UV-Vis spectroscopy to test the hypothesis above. First, a solution of DNA (2.5 × 10^–7 M) was added to the macrocycle (1–4) solution (3 × 10^–6 M). Then the herbicide solution (CGIS = 3 × 10^–6 M) was added to the resulting associate, and the absorption spectrum of the resulting ternary system was recorded. […]
Further, the interaction of the (pillar[5]arene–DNA) associated with GIS was quantified (Figure 7c,d and Figure S28). […] The effective association constants of the (macrocycle-DNA)-GIS associates of 1:1 composition were calculated (Table 2). […]
(§7) buffer solution. The UV spectra of the solutions were then recorded. The stability constant of complex was calculated by Bindfit. […]
(§8) volume of 3 mL with Tris‐HCl buffer solution. The UV spectra of the solutions were then recorded. The stability constant of each complex was calculated by Bindfit. […]
(§9) stability constant of complex was calculated by Bindfit. […]

DNA from salmon sperm [2] = assay: UV-Vis spectrophotometric titration, association with DNA from salmon sperm; format: binding; details: 1:1 complex, Tris-HCl buffer pH 7.44, CDNA 2.5 × 10^–7 M, BindFit
Method: The interaction of GIS with a series of synthesized pillar[5]arenes 1–4 and DNA was studied by UV-Vis spectroscopy. UV-Vis spectroscopy is a universal method to study the complex properties of synthetic receptors. The interaction of GIS with DNA from salmon sperm was initially studied (Figure 5). DNA from salmon sperm was chosen as a model substrate due to its relatively low molecular weight and small size. The experiments were carried out in a Tris-HCl buffer system (pH = 7.44).
The association constants were determined by spectrophotometric titration to quantify the interaction of DNA with GIS. The UV-Vis spectra of the DNA–GIS system were recorded in such a way that the DNA concentration remained constant (2.5 × 10^–7 M), and the herbicide concentration ratio increased from 1:0.3 to 1:10 (Figure 5b). The obtained experimental data were processed by the BindFit program. The association constant of a 1:1 complex was calculated (Figure S23). The logarithm of the association constant of DNA with GIS was determined as lgKa = 4.92. […] However, in this case, the association constant of the complexes was determined with a large error.
Further, the interaction of macrocycles 1–4 with the DNA from salmon sperm in Tris-HCl was studied by UV-Vis spectroscopy. […] The association constant of compound 4-DNA complex was determined by spectrophotometric titration. […] The logarithm of the association constant of pillar[5]arene 4 with the DNA was determined as lgKa (4–DNA) = 5.24.
The association constant of compound 1-DNA complex was also determined by spectrophotometric titration (Figure S25b). The logarithm of the association constant of pillar[5]arene 1 with DNA was determined as lgKa(1–DNA) = 4.88 (Figure S27). […]
as §7, §8, §9

LEC cells = assay: MTT test, LEC cells
Method: as §1, §2, §3, §4, §5, §6

IC50 (A549 cells; A549, MTT, 24 h): >100 * μg/mL
lgKa of (pillar[5]arene-DNA) associate with GIS (DNA from salmon sperm [1]; listed as betaine pillar[5]arene containing fragments of L-Phe): 3.60
lgKa, logarithm of the association constant with DNA (DNA from salmon sperm [2]): 5.24
Compound: C[N+](C)(CCCNC(=O)COc1cc2c(OCC(=O)NCCC[N+](C)(C)CC(=O)N[C@@H](Cc3ccccc3)C(=O)[O-])cc1Cc1cc(OCC(=O)NCCC[N+](C)(C)CC(=O)N[C@@H](Cc3ccccc3)C(=O)[O-])c(cc1OCC(=O)NCCC[N+](C)(C)CC(=O)N[C@@H](Cc1ccccc1)C(=O)[O-])Cc1cc(OCC(=O)NCCC[N+](C)(C)CC(=O)N[C@@H](Cc3ccccc3)C(=O)[O-])c(cc1OCC(=O)NCCC[N+](C)(C)CC(=O)N[C@@H](Cc1ccccc1)C(=O)[O-])Cc1cc(OCC(=O)NCCC[N+](C)(C)CC(=O)N[C@@H](Cc3ccccc3)C(=O)[O-])c(cc1OCC(=O)NCCC[N+](C)(C)CC(=O)N[C@@H](Cc1ccccc1)C(=O)[O-])Cc1cc(OCC(=O)NCCC[N+](C)(C)CC(=O)N[C@@H](Cc3ccccc3)C(=O)[O-])c(cc1OCC(=O)NCCC[N+](C)(C)CC(=O)N[C@@H](Cc1ccccc1)C(=O)[O-])C2)CC(=O)N[C@@H](Cc1ccccc1)C(=O)[O-] [Compound 4, 4,8,14,18,23,26,28,31,32,35-Decakis-[(N-[3’-dimethyl({oxidocarbonyl[S-benzyl]methyl}aminocarbonylmethyl)ammonio]propyl)aminocarbonylmethoxy]-pillar[5]arene]
cytotoxic activity (A549 cells; A549, concentration range 2–100 μg/mL): did not show statistically significant cytotoxic activity
lgKa of (pillar[5]arene-DNA) associate with GIS (DNA from salmon sperm [1]): decrease in lgKa by more than an order of magnitude
IC50 (LEC cells; MTT, 24 h): >100 * μg/mL
cytotoxic activity (LEC cells; concentration range 2–100 μg/mL): did not show statistically significant cytotoxic activity
